Data reported in the supplement of paper PMC11579375.

Assays:
Test in all cases: area under the viability dose-response curve (AUC) (AUC (arbitrary units, max 500 = no viability loss)); higher = less sensitive (higher viability)
Details in all cases: exposure time: 120 h; concentration range: 0.1 nM - 10 µM, 6 doses
13E = test system: 13E (embryonal-type hepatoblastoma organoid)
Procedure: (§1)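 Patient-derived hepatoblastoma tumor organoids (about 50 organoids per well, 384-well plates, medium with 5% BME) were treated with the PMC pediatric cancer drug library. Each drug was tested in duplicate at 6 concentrations (0.1 nM to 10 µM, 10-fold steps).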

17E = test system: 17E (embryonal-type hepatoblastoma organoid)
Procedure: as §1

17F1 = test system: 17F1 (fetal-I hepatoblastoma organoid with intermediate liver markers)
Procedure: as §1

13F2 = test system: 13F2 (fetal-II hepatoblastoma organoid with high liver markers)
Procedure: as §1

10F2 = test system: 10F2 (fetal-II hepatoblastoma organoid with high liver markers)
Procedure: as §1

8F1 = test system: 8F1 (fetal-I hepatoblastoma organoid with intermediate liver markers)
Procedure: as §1

3E = test system: 3E (embryonal-type hepatoblastoma organoid)
Procedure: as §1

27F1 = test system: 27F1 (fetal-I hepatoblastoma organoid with intermediate liver markers)
Procedure: as §1

22E = test system: 22E (embryonal-type hepatoblastoma organoid)
Procedure: as §1

135F2 = test system: 135F2 (fetal-II hepatoblastoma organoid with high liver markers)
Procedure: as §1

96F1 = test system: 96F1 (fetal-I hepatoblastoma organoid with intermediate liver markers)
Procedure: as §1

| SMILES | area under the viability dose-response curve (13E) | area under the viability dose-response curve (17E) | area under the viability dose-response curve (17F1) | area under the viability dose-response curve (13F2) | area under the viability dose-response curve (10F2) | area under the viability dose-response curve (8F1) | area under the viability dose-response curve (3E) | area under the viability dose-response curve (27F1) | area under the viability dose-response curve (22E) | area under the viability dose-response curve (135F2) | area under the viability dose-response curve (96F1) |
| --- | --- | --- | --- | --- | --- | --- | --- | --- | --- | --- | --- |
| COc1ncc(-c2nc3c(n2C(C)C)[C@H](c2ccc(Cl)cc2)N(c2cc(Cl)cn(C)c2=O)C3=O)c(OC)n1 [Siremadlin] | 383 | 318 | 395 | 246 | 200 | 373 | 306 | 359 | 414 | 328 | 385 |
| CNCc1ccc(-c2cc(-c3nc(-c4ccc(S(=O)(=O)C(C)C)cc4)cnc3N)on2)cc1 [Berzosertib] | 461 | 444 | > 500 | 401 | 411 | 499 | 391 | 498 | 473 | 391 | 459 |
| CCN1CCN(Cc2ccc(Nc3ncc(F)c(-c4cc(F)c5nc(C)n(C(C)C)c5c4)n3)nc2)CC1 [Abemaciclib] | 408 | 284 | 452 | 314 | 314 | 448 | 264 | 402 | 395 | 360 | 411 |
| C=CC(=O)N1CC[C@H](n2nc(C#Cc3cc(OC)cc(OC)c3)c3c(N)ncnc32)C1 [Futibatinib] | 372 | 323 | > 500 | 370 | 440 | 482 | 236 | > 500 | 425 | > 500 | > 500 |
| CNC(=O)c1ccc(-c2cnc3ncc(Cc4ccc5ncccc5c4)n3n2)cc1F [Capmatinib] | 498 | 481 | 477 | 403 | > 500 | 460 | > 500 | 465 | 462 | 491 | 478 |
| Cc1cccc(-c2nn3c(c2-c2ccnc4ccc(C(N)=O)cc24)CCC3)n1 [Galunisertib] | 493 | > 500 | > 500 | > 500 | 465 | > 500 | > 500 | > 500 | 482 | 493 | 481 |
| Cn1cnc2c(F)c(Nc3ccc(Br)cc3F)c(C(=O)NOCCO)cc21 [Binimetinib] | 490 | 424 | 458 | 379 | 343 | > 500 | > 500 | 499 | 489 | 396 | 481 |
| C[C@@H]1COCCN1c1cc(=O)n2c(n1)N(Cc1cncc(Cl)c1)[C@H](C(F)(F)F)CC2 [SAR405] | 497 | 496 | > 500 | 467 | > 500 | 489 | 479 | 454 | 474 | 490 | > 500 |
| CO[C@H]1/C=C/C[C@H](C)[C@@H](C)S(=O)(=O)NC(=O)c2ccc3c(c2)N(C[C@@H]2CC[C@H]21)C[C@@]1(CCCc2cc(Cl)ccc21)CO3 [AMG-176] | 421 | 434 | 481 | 344 | 274 | 475 | 369 | 450 | 454 | 431 | 488 |
| Nc1nc(=S)c2[nH]cnc2[nH]1 [6-Thioguanine] | 437 | 432 | 457 | 381 | 462 | 476 | 484 | 443 | 448 | 390 | 412 |
| CC[C@@H]1C(=O)N(C)c2cnc(Nc3ccc(C(=O)N[C@H]4CC[C@H](N5CCN(CC6CC6)CC5)CC4)cc3OC)nc2N1C(C)C [Volasertib] | 263 | 249 | 331 | 278 | 227 | 351 | 278 | 255 | 326 | 257 | 281 |
| CCOc1cc2ncc(C#N)c(Nc3ccc(OCc4ccccn4)c(Cl)c3)c2cc1NC(=O)/C=C/CN(C)C [Neratinib] | 464 | 424 | 431 | 319 | 234 | 449 | 444 | 362 | 453 | 462 | 416 |
| N#CC[C@H](C1CCCC1)n1cc(-c2ncnc3[nH]ccc23)cn1 [Ruxolitinib] | > 500 | 487 | 478 | 487 | 492 | > 500 | 462 | > 500 | 440 | 491 | 490 |
| Cc1cc(C)cc(C(=O)NOCCCCCC(=O)NO)c1 [LMK-235] | 404 | 365 | 418 | 379 | 395 | 428 | 407 | 411 | 413 | 378 | 426 |
| c1cn2cc(-c3ccc4cn[nH]c4c3)nc(Nc3ccc(N4CCOCC4)cc3)c2n1 [Entospletinib] | 486 | > 500 | 480 | > 500 | 462 | 480 | 473 | 490 | 496 | 481 | 480 |
| COc1cc2c(Oc3ccc4[nH]c(C)cc4c3F)ncnc2cc1OCCCN1CCCC1 [Cediranib] | 428 | 425 | 459 | 402 | 430 | > 500 | 390 | 431 | 414 | 438 | 454 |
| Nc1ccccc1NC(=O)c1ccc(CNC(=O)OCc2cccnc2)cc1 [Entinostat] | 425 | 428 | 434 | 429 | 358 | 426 | 386 | 462 | 439 | 455 | 483 |
